{"source": "patent US12589122B2", "about": "“Methods and compositions for treating infectious, autoimmune, and allergic disease” (The University of Chicago, priority 2018, dated 2026)", "key": {"A. caccae_lah [1]": {"test_system": "A. caccae_lah", "assay": "In vitro fermentation in PY broth, monoculture butyrate production (HPLC-UV-Vis)", "assay_type": "cell-based, Anaerostipes caccae", "settings": "for lactate or acetate in the media at 48 h: A. caccae_lah monoculture, Nutramigen plus 40 mM lactate+33 mM acetate; for butyrate production by A. caccae_lah: monoculture, PY broth supplemented with 10 mg/ml carbohydrates, 48 h", "method": "(§1) This method of preculture is used for all future in vitro fermentation experiments. Then 10 μl of preculture was transferred into 7 mL minimal peptone yeast (PY) broth alone or supplemented with 10 mg/ml of glucose, sucrose, lactose, cellobiose, or potato starch. All of these variations of PY were pre-reduced anaerobically prepared by Anaerobe Systems. Growth and butyrate production were measured after 48 h. […] Butyrate in solution is quantified by HPLC-UV-Vis as described in reference 61 and 62. […] These simple sugars are similar to those found in infant formula. […] These are the same formulas consumed by the healthy (Enfamil®) and CMA (Nutramigen®) infant donors and are also consumed by all mice colonized with these respective microbiomes. […] All groups were analyzed by one way ANOVA. *P<0.05, **P<0.01, ***P<0.001, ****P<0.0001 versus PY.\n(§2) Other groups have shown that primary degraders, namely Bacteroides species, break down complex fibers and produce metabolites lactate and acetate which Clostridia species can then consume to produce butyrate (59). […] Growth and butyrate production were measured after 48 h. […] All groups were analyzed by one way ANOVA. *P<0.05, **P<0.01, ***P<0.001, ****P<0.0001 versus PY alone."}, "A. caccae_lah [2]": {"test_system": "A. caccae_lah", "assay": "In vitro fermentation in PY broth, monoculture growth (OD600)", "assay_type": "cell-based, Anaerostipes caccae", "settings": "48 h; for Growth of A. caccae_lah / Growth of A. caccae_lah (OD600): monoculture; for Growth of A. caccae_lah: PY broth supplemented with 33 mM acetate and/or 40 mM lactate; for Growth of A. caccae_lah (OD600): PY broth supplemented with 10 mg/ml carbohydrates", "method": "as §1, §2"}, "A. caccae_lah [3]": {"test_system": "A. caccae_lah", "assay": "Antibiotic susceptibility by growth inhibition around antibiotic discs", "assay_type": "cell-based, Anaerostipes caccae", "settings": "discs 10 μg ampicillin, 30 μg tetracycline; BHI agar, 37° C. anaerobic, six days", "method": "Plates are incubated at 37° C. in anaerobic conditions for six days."}, "IL-4": {"test_system": "IL-4", "assay": "Splenocyte cytokine ELISA after BLG stimulation (IL-4)", "assay_type": "cell-based, mouse", "settings": "sacrificed 24 h post challenge, stimulated 72 h with BLG; A. caccae vs CMA colonized", "method": "(§3) For cytokine analysis spleens were harvested 24 h post challenge from A. caccae or CMA colonized mice sensitized with BLG+CT for 5 weeks. Splenocytes were stimulated at a concentration of 2×10^6 cells/ml at 37° C., 10% CO2 with 10 mg/ml BLG (Sigma) in cDMEM (with 4% FCS (HyClone), 10 mM HEPES (Gibco), 100 U/ml Penicillin/Streptomycin (Gibco) and 55 μM 2-mercaptoethanol (Gibco). Cytokine concentrations in 72 hr culture supernatants were determined by ELISA for IL-13 and IL-4 (both from Invitrogen)."}, "IL-13": {"test_system": "IL-13", "assay": "Splenocyte cytokine ELISA after BLG stimulation (IL-13)", "assay_type": "cell-based, mouse", "settings": "sacrificed 24 h post challenge, stimulated 72 h with BLG; A. caccae vs CMA colonized", "method": "as §3"}, "[4]": {"test_system": "BLG plus CT sensitized mice, anaphylactic response to BLG challenge", "assay_type": "in vivo, C3H/HeN mice"}, "[5]": {"test_system": "Ror2, Fbp1, Tgfbr3, Acot12 and Me1 in ileal IECs", "assay": "qPCR gene expression in ileal IECs", "assay_type": "in vivo, mouse", "settings": "A. caccae monocolonized compared to GF or CMA-colonized mice", "method": "Epithelial cell isolation. As in sensitization experiments, mice were weaned at 3 weeks of age and placed on infant formula prior to colonization. Seven days after colonization, mice were euthanized and ileum was removed. For IEC isolation, tissues were cleaned and inverted as described in ref (43). IECs were collected by inflating inverted tissue in Cell Recovery Solution (Corning) every 5 minutes for 30 minutes. IEC samples were lysed in TRIZol (ThermoFisher) and RNA was extracted with PureLink RNA Mini Kit (Ambion) plus on-column DNAse treatment (PureLink DNAse Set, Ambion).\nqPCR. Gene expression was measured by qPCR as described in reference 7. In brief, cDNA was prepared from RNA using the iScript cDNA Synthesis kit (BioRad). Gene expression was measured with PowerUp SYBR green master mix (Applied Biosystems) according to the manufacturer's instructions. Primers are listed in Supplementary Table 7 (20, 50-54). Expression of genes of interest was normalized to Hprt. Relative expression was measured using ΔΔCt centered around the geometric mean; GF mice were used as a reference."}, "BLG-specific IgE": {"test_system": "BLG-specific IgE", "assay": "Serum BLG-specific IgE ELISA after challenge", "assay_type": "in vivo, mouse", "settings": "A. caccae monocolonized vs CMA colonized mice", "excerpt": "(§4) Food allergen sensitization and challenge. Protocols were adapted from reference 7. All mice were weaned onto a plant-based mouse chow (Purina Lab Diet® 5K67) at 3 weeks of age. GF mice received autoclaved sterile water. For mice colonized with feces from infant donors, or monocolonized with A. caccae, the drinking water was replaced by formula four hours prior to colonization. Mice colonized with healthy feces or A. caccae received Enfamil®; CMA colonized mice received Nutramigen® (both from Mead Johnson). On day 0, one week post weaning (GF) or colonization (healthy/A. caccae/CMA), all mice were fasted for 4 hours and then given a gavage of 200 mM sodium bicarbonate. 30 minutes later, mice were given 20 mg BLG (Sigma) plus 10 μg CT (List Biologicals). This protocol was repeated weekly for 5 weeks. For formula-fed mice, formula was replaced by sterile water for the week after the last sensitization. Prior to challenge on day 42, mice were fasted for 4 hours and given sodium bicarbonate by gavage. Two doses of 100 mg BLG each were then administered via intragastric gavage 30 minutes apart. Core body temperature was measured in a blinded fashion prior to allergen challenge and every 5 minutes after the first challenge until at least 30 minutes after the second challenge using a rectal probe (PhysiTemp). Serum was collected 1 hour after the second challenge to measure mMCPT-1 levels."}, "mMCPT-1": {"test_system": "mMCPT-1", "assay": "Serum mMCPT-1 ELISA 1 hour after second challenge", "assay_type": "in vivo, mouse", "settings": "A. caccae monocolonized compared to CMA colonized mice", "excerpt": "as §4"}, "BLG-specific IgG1": {"test_system": "BLG-specific IgG1", "assay": "Serum BLG-specific IgG1 ELISA after challenge", "assay_type": "in vivo, mouse", "settings": "A. caccae monocolonized vs CMA colonized mice", "excerpt": "as §4"}}, "note": "“Also recorded” adds a separate entry of the source."}
{"compound": "CC(=O)O", "note": "[acetate]", "values": [{"measurement": "lactate or acetate in the media at 48 h", "setting": "A. caccae_lah [1]", "value": "no detectable"}, {"measurement": "Growth of A. caccae_lah", "setting": "A. caccae_lah [2]", "value": "significant growth"}]}
{"compound": "CC1(C)S[C@@H]2[C@H](NC(=O)[C@H](N)c3ccccc3)C(=O)N2[C@H]1C(=O)O", "note": "[ampicillin]", "values": [{"measurement": "antibiotic susceptibility of A. caccae_lah (zone of clearance)", "setting": "A. caccae_lah [3]", "value": "highly susceptible"}]}
{"compound": "O=C[C@H](O)[C@@H](O)[C@H](O[C@@H]1O[C@H](CO)[C@@H](O)[C@H](O)[C@H]1O)[C@H](O)CO", "note": "[cellobiose]", "values": [{"measurement": "butyrate production by A. caccae_lah", "setting": "A. caccae_lah [1]", "value": "not able to produce significant butyrate"}]}
{"compound": "CC(O)C(=O)O", "note": "(centres unmarked) [lactate]", "values": [{"measurement": "lactate or acetate in the media at 48 h", "setting": "A. caccae_lah [1]", "value": "no detectable"}, {"measurement": "Growth of A. caccae_lah", "setting": "A. caccae_lah [2]", "value": "significant growth"}]}
{"compound": "OC[C@H]1O[C@@H](O[C@H]2[C@H](O)[C@@H](O)C(O)O[C@@H]2CO)[C@H](O)[C@@H](O)[C@H]1O", "note": "(some centres unmarked) [lactose]", "values": [{"measurement": "butyrate production by A. caccae_lah", "setting": "A. caccae_lah [1]", "value": "produced the most butyrate"}, {"measurement": "fermentation by A. caccae_lah in monoculture", "setting": "A. caccae_lah [2]; minimal PY broth supplemented with 10 mg/ml carbohydrates", "value": "can ferment"}, {"measurement": "Growth of A. caccae_lah (OD600)", "setting": "A. caccae_lah [2]", "value": "grew abundantly"}]}
{"compound": "OC[C@H]1O[C@@](CO)(O[C@H]2O[C@H](CO)[C@@H](O)[C@H](O)[C@H]2O)[C@@H](O)[C@@H]1O", "note": "[sucrose]", "values": [{"measurement": "butyrate production by A. caccae_lah", "setting": "A. caccae_lah [1]", "value": "produced the most butyrate"}, {"measurement": "Growth of A. caccae_lah (OD600)", "setting": "A. caccae_lah [2]", "value": "grew abundantly"}]}
{"compound": "Anaerostipes caccae [A. caccae]", "values": [{"measurement": "IL-4 in culture supernatants of splenocytes", "setting": "IL-4", "value": "reduced"}, {"measurement": "IL-13 in culture supernatants of splenocytes", "setting": "IL-13", "value": "reduced"}, {"measurement": "changes in core body temperature after BLG challenge", "setting": "[4]; A. caccae monocolonized compared to CMA colonized mice", "value": "significantly reduced"}, {"measurement": "anaphylactic response to BLG challenge", "setting": "[4]; BLG plus CT sensitized A. caccae monocolonized mice", "value": "protected against an anaphylactic response to BLG challenge; also recorded: protects against an allergic response to food"}, {"measurement": "Fbp1 gene expression in ileal IECs (qPCR)", "setting": "[5]", "value": "significantly upregulated"}, {"measurement": "Tgfbr3 gene expression in ileal IECs (qPCR)", "setting": "[5]", "value": "significantly upregulated"}, {"measurement": "serum BLG-specific IgE", "setting": "BLG-specific IgE", "value": "reduced"}, {"measurement": "serum concentrations of mMCPT-1", "setting": "mMCPT-1", "value": "significantly reduced"}, {"measurement": "serum BLG-specific IgG1", "setting": "BLG-specific IgG1", "value": "reduced"}]}
